Patent publication US20090042874A1, “ANTIDEPRESSANT HETEROARYL DERIVATIVES OF HETEROCYCLE-FUSED BENZODIOXANS” (WYETH, priority 2007, published 2009)
Where a name gives a salt, the structure may show the parent alone. Read-outs that look alike come from different tables or passages of the source.

Key:
[1] = biological target: T1, h-5HT1A (Homo sapiens, UniProt P08908); assay: 5HT1A receptor SPA binding assay, [3H]-OH DPAT, CHO cell membranes; conditions: [3H]-OH DPAT 3 nM
T1 construct: expressed in transfected cells; host or cells: CHO cells grown in suspension in a 10 liter bioreactor
T1 sequence (P08908 1-422): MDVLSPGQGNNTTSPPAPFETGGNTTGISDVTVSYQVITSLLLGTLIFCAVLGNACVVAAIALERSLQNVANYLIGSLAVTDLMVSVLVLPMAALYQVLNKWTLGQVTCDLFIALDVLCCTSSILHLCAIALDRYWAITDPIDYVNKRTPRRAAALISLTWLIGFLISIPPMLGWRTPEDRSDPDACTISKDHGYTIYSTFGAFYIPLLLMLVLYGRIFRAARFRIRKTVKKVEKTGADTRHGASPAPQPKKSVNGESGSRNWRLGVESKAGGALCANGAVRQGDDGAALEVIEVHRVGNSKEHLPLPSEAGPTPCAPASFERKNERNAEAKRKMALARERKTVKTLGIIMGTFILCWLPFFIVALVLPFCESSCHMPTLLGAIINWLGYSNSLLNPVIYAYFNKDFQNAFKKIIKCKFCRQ
Protocol: Determination of the Inhibitory Activity of Compounds at the Serotonin 5HT1A Receptor Subtype using Scintillation Proximity Assay (SPA) Technology
Cells: CHO cells expressing the serotonin 5HT1A receptor subtype were grown in suspension in 10 liter bioreactor and supplied as a wet cell pellet
Binding experiments are performed in a total volume of 200 μl using a 96 well microtiter plate format (Packard Optiplate). On the day of the assay, the membranes are thawed and resuspended with enough 50 mM Tris (HCI) pH 7.5, 10 mM MgCl2, 0.2 mM EDTA, 10 μM pargyline, and 0.1% ascorbate (assay buffer) to achieve a protein concentration of 800 μg/ml. To each well of the microtiter plate, 20 μl of 10× test compound in water containing 3.3% DMSO, 3 nM of [3H]-OH DPAT (Amersham, SA: 200 Ci/mmol), 80 μg cell membrane and assay buffer are combined to achieve a volume of 150 μl. Assay buffer and 10 μM cold 5-HT are substituted for the test compound in separate wells to define ‘total’ and ‘nonspecific’ bindings, respectively. The incubation period is initiated by the addition of 50 μl of 10 mg/ml PVT WGA SPA beads (RPNQ0060, Amersham GE Healthcare) resuspended in assay buffer for a final concentration of 0.5 mg/well. The plates are sealed and gently shaken at room temperature using an orbital shaker (setting 1.5) until equilibrium is achieved (2 h-overnight incubation). Radioactivity (CPM) is measured by Packard TopCount (1 min counting time/well).
Specific binding is described as the total radioactivity bound less the amount bound in the presence of 10 μM 5HT, referred to as non-specific binding (NSB). Binding in the presence of varying concentrations of test compounds is expressed as percent of specific binding in the absence of compound.
{(Bound−NSB)/(Total−NSB)}×100=% Total
Regression analysis of % bound data from ten concentrations is performed in GraphPad Prism, XL Fit or equivalent software. IC50 values are calculated using a four-parameter logistic curve fitting model and Ki values are calculated by the Cheng-Prusoff equation below: […]
where L is the nM concentration of the radioactive ligand used and the Kd is the dissociation constant of the ligand for the receptor. The Kd for [3H-OH DPAT in the SPA binding format is 3 nM. • Single dose
Percent inhibition: The displacement of […] by the test compound at h5-HT1A as determined by: [(Total DPM−compound DPM)/(Total DPM−NSB DPM)]×100. • Conc.: concentration of test compound; NBS: non-specific binding; DPM: disintegrations per min

[2] = biological target: T2, Human Serotonin Transporter (h5HT-T) (Homo sapiens, UniProt P31645); assay: biochemical
Protocol: (§1) MEDIA REAGENTS: Dulbecco's Modified Eagle Medium (DMEM) with High Glucose, L-Glutamine, 110 mg/L Sodium Pyruvate, Pyridoxine Hydrochloride containing: • a) 10% Fetal Bovine Serum, Heat-inactivated and Dialyzed (10,000 Mol Wt.) • b) 1% Pennicilin-streptomycin • c) 100 μg/ml Geneticin/G418 • 2. […] Immediately add 15 ml Cell Culture medium to inactivate trypsin and mix well. […] (eg. 1×T175 flask can seed 20×T175 flasks) • g) Incubate cells at 37° C., 5% CO2, in a humidified incubator. NOTE: Cells will grow to confluence within 3-4 days.
(§2) Cells are resuspended in 3 volumes of 50 mM Tris-HC1 (pH 7.4) to 1 volume of initial cell fraction • 2. Partially homogenize cells by swirling or by using transfer pipetor to make cell solution more homogenous and aliquot solution into 4 clear 50 ml polypropylene centrifuge tubes • 3. Tubes are balanced and spun down at 2,000 rpm for 10 minutes at 4° C. using the HS-4 rotor (rotor code 8) • 4. Supernatant is decanted and pellets resuspend in an additional 75 ml of 50 mM Tris-HCl (pH 7.4)→˜18 ml Tris to each of 4 tubes • 5. Spin cells again at 5, 000 rpm for minutes at 4° C. using the HS-4 rotor and decant supernatant • 6. Resuspend final pellts in appropriate volume of 50 nM Tris to yield protein concentration of ˜6 mg/ml • add 100 ml Tris to original cell suspension of 35 ml • add ˜72 ml; Tris to original cell suspension of 25 ml • 7. Add the appropriate final volume and split the cells into two/three 50 ml Falcon polypropylene tubes. Thoroughly vortex your cell suspension in these tubes to ensure homogeneity before aliquoting. • 8. Pool the samples from the 50 nl tubes into one larger flat-bottom vessel and stir constantly on ice (4° C.). • 9. While stirring, aliquot 1 ml portions out into 1.5 ml cryogenic vials. • 10. Store vials at −70° C. until subsequtn asay. Retain one aliquot for protein concentration, Kd and Bmax determination before starting experiments using new batch of cells. Proetin concentration is determined using the Lowry method.
(§3) Required buffers: • Assay buffer; 50 mM Tris HCl, 120 mM NaCl and 5 mM KCl, pH 7.4 • 2. Binding protocol: Preliminary screening assays are performed using single replicates on duplicate plates. Dose-response binding assays are performed in a single replicates on duplicate OptiPlates (Perkin Elmer) using 0.1 nM to 3 μM of test drug.
(§4) a) To each well add 10 μL of test compound, blank compound (10 μM Fluoxetine), or assay buffer (50 mM Tris HCl, 120 mM NaCl and 5 mM KCl, pH 7.4. Each well is then supplemented with 40 μL of assay buffer.
(§5) The isotope solution is also disuted in 50 mM Tris HCl, 120 mM NaCl and 5 mM KCl, pH 7.4 • c) Resuspend membrane pellet in binding buffer to achieve a solution containing 5 μg of protein in 50 μL. This will yield a final protein concentration of 5 μg/well. • d) To each well add 0.5 mg of Wheatgerm Agglutinin (WGA) SPA beads in 50 μl of 50 mM Tris HCl, 120 mM NaCl and 5 mM KCl, pH 7.4 • e) Incubate plates, while gently shaking, for at least 1 hour so as to reach equilibrium. Plates can still be read if left to incubate overnight without loss of signal. • f) Count plates on TopCount.
(§6) 3H-Citallopram binding is expressed as percent of specific binding, with IC50 and Ki VALUES DETERMINED BY nonlinear regression analysis using the Activity Base software package. Specific binding is defined as total binding observed in the presence of 10 μM fluoxetine.

[3] = biological target: T2, Human Serotonin Transporter (h5HT-T); conditions: read-out: human SERT SPA binding assay Ki
Protocol: as §1, §2, §3, §4, §5, §6

[4] = biological target: T3, human 5HT1A receptors (Homo sapiens, UniProt P08908); assay: Displacement of [3H] 8-OH-DPAT from 5HT1A receptor, CHO cells stably transfected with human 5HT1A receptors; assay type: binding; conditions: [3H] 8-OH-DPAT displacement, CHO cells with human 5HT1A; read-out: 5HT1A Receptor Affinity Ki
T3 construct: expressed in transfected cells; host or cells: CHO cells
T3 sequence (P08908 1-422): T1 sequence (P08908 1-422)
From the text: High affinity for the serotonin 5HT1A receptor was established by testing the claimed compound's ability to displace [^3H] 8-OH-DPAT (dipropylamino-tetralin) from the 5HT1A serotonin receptor following a modification of the procedure of Hall et al., J. Neurochem. 44, 1685 (1985) which utilizes CHO cells stably transfected with human 5HT1A receptors.

[5] = biological target: T4, serotonin transporter (Rattus norvegicus, UniProt P31652); assay: Displacement of 3H-paroxetine from male rat frontal cortical membranes (serotonin transporter affinity); assay type: binding; conditions: 3H-paroxetine displacement, read-out: 5-HT Transporter Affinity Ki
T4 construct: displace ^3H-paroxetine from male rat frontal cortical membranes; from tissue; host or cells: male rat frontal cortex membranes
From the text: Affinity of Compounds of the Invention for the Serotonin Transporter

[6] = biological target: T5, cloned human 5HT1A receptors (Homo sapiens, UniProt P08908); assay: 35S-GTPγS binding assay, agonist/antagonist activity at 5HT1A receptors; assay type: biochemical
T5 construct: expressed in transfected cells
T5 sequence (P08908 1-422): T1 sequence (P08908 1-422)
Protocol: Determination of […] or Antagonist Activity at 5HT1A Receptors
Antagonist or antagonist activity at 5HT1A receptors was established by using a ^35S-GTPγS binding assay similar to that used by Lazareno and Birdsall (Br. J. Pharmacol. 109: 1120, 1993), in which the test compound's ability to affect the binding of ^35S-GTPγS to membranes containing cloned human 5HT1A receptors was determined. Agonists produce an increase in binding whereas antagonists produce no increase but rather reverse the effects of the standard agonist 8-OH-DPAT. The test compound's maximum inhibitory effect is represented as the Imax, while its potency is defined by the IC50. The results of the three standard experimental test procedures described in the preceding three paragraphs were as follows: […]

T2 sequence (P31645 whole entry): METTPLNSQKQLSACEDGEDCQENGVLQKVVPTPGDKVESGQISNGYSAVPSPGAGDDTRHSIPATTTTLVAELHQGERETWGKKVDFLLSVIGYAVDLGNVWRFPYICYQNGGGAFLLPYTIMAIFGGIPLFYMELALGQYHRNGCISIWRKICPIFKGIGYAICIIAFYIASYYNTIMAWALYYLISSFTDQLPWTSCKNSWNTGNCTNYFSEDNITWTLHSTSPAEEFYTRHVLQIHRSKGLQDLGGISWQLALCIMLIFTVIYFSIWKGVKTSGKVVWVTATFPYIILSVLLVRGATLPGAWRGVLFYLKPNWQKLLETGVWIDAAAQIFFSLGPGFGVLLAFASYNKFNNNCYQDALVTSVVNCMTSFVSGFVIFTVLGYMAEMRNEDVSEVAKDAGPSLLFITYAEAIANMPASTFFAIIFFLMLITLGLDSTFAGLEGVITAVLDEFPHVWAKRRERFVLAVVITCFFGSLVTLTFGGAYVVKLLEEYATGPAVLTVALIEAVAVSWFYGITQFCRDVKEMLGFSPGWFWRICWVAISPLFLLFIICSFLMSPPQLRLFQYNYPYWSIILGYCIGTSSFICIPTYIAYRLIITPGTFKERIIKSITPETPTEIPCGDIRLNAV
T4 sequence (P31652 whole entry): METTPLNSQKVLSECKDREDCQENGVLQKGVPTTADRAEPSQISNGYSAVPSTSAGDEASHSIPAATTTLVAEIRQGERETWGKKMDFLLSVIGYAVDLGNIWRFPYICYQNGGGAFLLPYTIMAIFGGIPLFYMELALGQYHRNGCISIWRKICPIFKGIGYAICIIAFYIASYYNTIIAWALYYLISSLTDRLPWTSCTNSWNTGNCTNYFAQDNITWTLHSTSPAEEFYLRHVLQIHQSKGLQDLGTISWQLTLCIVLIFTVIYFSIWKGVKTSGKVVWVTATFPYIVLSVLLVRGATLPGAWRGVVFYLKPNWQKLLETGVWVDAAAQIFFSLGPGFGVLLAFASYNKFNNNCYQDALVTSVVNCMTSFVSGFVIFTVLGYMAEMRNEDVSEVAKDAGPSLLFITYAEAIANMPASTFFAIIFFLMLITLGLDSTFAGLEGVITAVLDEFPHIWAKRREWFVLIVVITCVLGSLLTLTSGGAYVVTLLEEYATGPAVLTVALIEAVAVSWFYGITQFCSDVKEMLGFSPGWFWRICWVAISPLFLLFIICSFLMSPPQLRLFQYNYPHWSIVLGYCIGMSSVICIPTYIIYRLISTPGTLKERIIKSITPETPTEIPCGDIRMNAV

Compound | Ki [1] [nM] | Ki [2] [nM] | Ki [4] [nM] | Ki [5] [nM] | also measured
Cc1ccc2c3c(ccc2n1)OC[C@H](CN1C2CCC1CC(Cc1ccc4c(c1)NC(=O)CC4)C2)O3 (stereo partly drawn) [Example 23, 7-[(8-{[(2S)-8-Methyl-2,3-dihydro[1,4]dioxino[2,3-f]quinolin-2-yl]methyl}-8-azabicyclo[3.2.1]oct-3-yl)methyl]-3,4-dihydroquinolin-2(1H)-one] | 2.42 | 12.4 | – | – | –
Cc1ccc2c3c(ccc2n1)OC[C@H](CN1CCC[C@H](Oc2ccc4c(c2)NC(=O)CO4)C1)O3 [Example 26, 6-{[(3S)-1-{[(2S)-8-Methyl-2,3-dihydro[1,4]dioxino[2,3-f]quinolin-2-yl]methyl}piperidin-3-yl]oxy}-2H-1,4-benzoxazin-3(4H)-one] | 361 | 376 | – | – | –
8-Fluoro-6-[(1-{[(2S)-8-methyl-2,3-dihydro[1,4]dioxino[2,3-f]quinolin-2-yl]methyl}piperidin-4-yl)methyl]-2H-1,4-benzoxazin-3(4H)-one [Example 21a] | 15.5 | – | – | – | Ki [3]: 68.2 nM
Cc1ccc2c3c(ccc2n1)OC[C@H](CN1CCC(Cc2ccc4c(c2)NC(=O)CC4)CC1)O3 [Example 20, 7-[(1-{[(2S)-8-Methyl-2,3-dihydro[1,4]dioxino[2,3-f]quinolin-2yl]methyl}piperidin-4-yl)methyl]-3,4-dihydroquinolin-2(1H)-one] | 1.15 | 5.88 | – | – | –
Cc1ccc2c3c(ccc2n1)OC[C@H](CN1CCCC(Cc2ccc4c(c2)NC(=O)CC4)C1)O3 (stereo partly drawn) [Example 24, 7-[(1-{[(2S)-8-Methyl-2,3-dihydro[1,4]dioxino[2,3-f]quinolin-2-yl]methyl}piperidin-3-yl)methyl]-3,4-dihydroquinolin-2(1H)-one] | 2.33 | 9.77 | – | – | –
Cc1ccc2c3c(ccc2n1)OC[C@H](CN1CCC(CCc2ccc4c(c2)N(C)C(=O)CO4)CC1)O3 [Example 13, 4-Methyl-6-[2-(1-{[(2S)-8-methyl-2,3-dihydro[1,4]dioxino[2,3-f]quinolin-2-yl]methyl}piperidin-4-yl)ethyl]-2H-1,4-benzoxazin-3(4H)-one dihydrochloride salt] | – | – | 0.63 | 13.9 | –
Cc1ccc2c3c(ccc2n1)OC[C@H](CN1CCC(Oc2ccc4c(c2)NC(=O)CO4)CC1)O3 [Example 1, 6-[(1-{[(2S)-8-methyl-2,3-dihydro[1,4]dioxino[2,3-f]quinolin-2-yl]methyl}piperidin-4-yl)oxy]-2H-1,4-benzoxazin-3(4H)-one dihydrochloride salt] | – | – | 0.26 | 9.5 | IC50 ([6]; reversal of 8-OH-DPAT effect, read-out: 5HT1A Function IC50): 59.3 nM; 5HT1A Function Imax (maximum inhibitory effect) ([6]; value in parentheses): 97
Cc1ccc2c3c(ccc2n1)OC[C@H](CN1CCCC(Cc2ccc4c(c2)NC(=O)CO4)C1)O3 (stereo partly drawn) [Example 16, 6-[(1-{[(2S)-8-Methyl-2,3-dihydro[1,4]dioxino[2,3-f]quinolin-2-yl]methyl}piperidin-3-yl)methyl]-2H-1,4-benzoxazin-3(4H)-one dihydrochloride salt] | – | – | 0.4 | 5 | –
Cc1ccc2c3c(ccc2n1)OC[C@H](CN1CCC(Cc2ccc4c(c2)NC(=O)CO4)CC1)O3 [Example 2, 6-[(1-{[(2S)-8-Methyl-2,3-dihydro[1,4]dioxino[2,3-f]quinolin-2-yl]methyl}piperidin-4-yl)methyl]-2H-1,4-benzoxazin-3(4H)-one dihydrochloride] | – | – | 0.16 | 8.9 | –
8-Fluoro-6-[(1-{[(2S)-8-methyl-2,3-dihydro[1,4]dioxino[2,3-f]quinolin-2-yl]methyl}piperidin-4-yl)methyl]-2H-1,4-benzoxazin-3(4H)-one [Example 21b] | 1.12 | – | – | – | Ki [3]: 1.74 nM
Cc1ccc2c3c(ccc2n1)OC[C@H](CN1CCC(Oc2ccc4c(c2)N(C)C(=O)CO4)CC1)O3 [Example 5, 4-Methyl-6-[(1-{[(2S)-8-methyl-2,3-dihydro[1,4]dioxino[2,3-f]quinolin-2-yl]methyl}piperidin-4-yl)oxy]-2H-1,4-benzoxazin-3(4H)-one dihydrochloride salt] | – | – | 0.54 | 11 | –
Cc1ccc2c3c(ccc2n1)OC[C@H](CN1CC[C@@H](Oc2ccc4c(c2)NC(=O)CO4)C1)O3 [Example 9, 6-{[(3R)-1-{[(2S)-8-Methyl-2,3-dihydro[1,4]dioxino[2,3-f]quinolin-2-yl]methyl}pyrrolidin-3-yl]oxy}-2H-1,4-benzoxazin-3(4H)-one dihydrochloride salt] | – | – | 3.53 | 4.5 | –
Cc1ccc2c3c(ccc2n1)OC[C@H](CN1CCC[C@@H](Oc2ccc4c(c2)NC(=O)CO4)C1)O3 [Example 25, 6-{[(3R)-1-{[(2S)-8-Methyl-2,3-dihydro[1,4]dioxino[2,3-f]quinolin-2-yl]methyl}piperidin-3-yl]oxy}-2H-1,4-benzoxazin-3(4H)-one] | 13.8 | 146 | – | – | –
Cc1ccc2c3c(ccc2n1)OC[C@H](CN1CCC(Cc2ccc4c(c2)N(C)C(=O)CO4)CC1)O3 [Example 12, 4-Methyl-6-[(1-{[(2S)-8-methyl-2,3-dihydro[1,4]dioxino[2,3-f]quinolin-2-yl]methyl}piperidin-4-yl)methyl]-2H-1,4-benzoxazin-3(4H)-one dihydrochloride salt] | – | – | 0.29 | 6.65 | –
